Values of other authors in patent US20090233947A1, “2,3-Substituted fused bicyclic pyrimidin-4(3H)-ones which modulating the function of the vanilloid -1 receptor (VR1)” (priority 2005, published 2009).

Biological target: VR1 (Rattus norvegicus, UniProt O35433)
Details: Wahl et al., Mol. Pharmacol., 59:9, 2001

Sequence of VR1 (O35433 whole entry): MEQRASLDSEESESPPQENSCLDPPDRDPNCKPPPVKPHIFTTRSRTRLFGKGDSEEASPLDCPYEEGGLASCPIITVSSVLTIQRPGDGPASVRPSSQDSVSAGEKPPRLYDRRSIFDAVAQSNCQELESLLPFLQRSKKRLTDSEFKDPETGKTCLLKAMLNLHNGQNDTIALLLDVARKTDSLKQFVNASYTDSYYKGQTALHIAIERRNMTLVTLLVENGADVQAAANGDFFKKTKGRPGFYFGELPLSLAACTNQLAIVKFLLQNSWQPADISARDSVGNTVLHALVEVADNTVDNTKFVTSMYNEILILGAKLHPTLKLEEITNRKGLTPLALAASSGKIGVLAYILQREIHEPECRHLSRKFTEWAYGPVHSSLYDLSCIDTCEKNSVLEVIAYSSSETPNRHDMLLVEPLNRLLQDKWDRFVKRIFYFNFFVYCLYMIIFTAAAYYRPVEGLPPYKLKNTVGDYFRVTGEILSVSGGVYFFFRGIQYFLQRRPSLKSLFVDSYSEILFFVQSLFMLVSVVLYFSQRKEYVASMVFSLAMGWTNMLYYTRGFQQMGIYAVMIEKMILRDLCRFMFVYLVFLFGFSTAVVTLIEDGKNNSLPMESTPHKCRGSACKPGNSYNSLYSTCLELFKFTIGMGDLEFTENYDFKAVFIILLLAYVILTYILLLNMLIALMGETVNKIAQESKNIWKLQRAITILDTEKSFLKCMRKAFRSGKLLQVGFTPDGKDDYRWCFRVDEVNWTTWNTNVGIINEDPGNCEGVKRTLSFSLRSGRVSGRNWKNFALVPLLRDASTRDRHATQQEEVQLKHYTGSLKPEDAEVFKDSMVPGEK

SMILES: C=C(C)[C@]12C[C@@H](C)[C@@]34O[C@](Cc5ccccc5)(O[C@@H]1[C@@H]3C=C(COC(=O)Cc1cc(I)c(O)c(OC)c1)C[C@]1(O)C(=O)C(C)=C[C@@H]41)O2 [iodo-resiniferatoxin]
- antagonist of VR1: nanomolar antagonist
